Source: publication PMC10002984, “Dual PTP1B/TC-PTP Inhibitors: Biological Evaluation of 3-(Hydroxymethyl)cinnoline-4(1H)-Ones” (International Journal of Molecular Sciences, 2023)
Marks after values point to notes of the source that are not given here.

Assays:
diet-induced obese rats = test system: diet-induced obese rats; parameters: method as in doi:10.1134/S0022093022060187; details: cited from earlier work
PTP1B = test system: PTP1B; parameters: method as in doi:10.1134/S0022093018040038; details: cited from earlier work
rat hypothalamic neurons = test system: rat hypothalamic neurons; parameters: method as in doi:10.1134/S0022093018040038; details: cited from earlier work
[1] = molecular target: T1, human recombinant TC-PTP protein (Homo sapiens, UniProt P17706); assay: Phosphatase activity assay with DiFMUP, TC-PTP inhibition; format: biochemical; details: DiFMUP 35 µM, 80 ng/mL TC-PTP, compounds 0.1–80 μM; M ± SEM (n = 24); read-out: IC50 for the inhibitory effect on TC-PTP activity
T1 construct: purchased Sigma-Aldrich SRP0218
T1 sequence (P17706 1-415): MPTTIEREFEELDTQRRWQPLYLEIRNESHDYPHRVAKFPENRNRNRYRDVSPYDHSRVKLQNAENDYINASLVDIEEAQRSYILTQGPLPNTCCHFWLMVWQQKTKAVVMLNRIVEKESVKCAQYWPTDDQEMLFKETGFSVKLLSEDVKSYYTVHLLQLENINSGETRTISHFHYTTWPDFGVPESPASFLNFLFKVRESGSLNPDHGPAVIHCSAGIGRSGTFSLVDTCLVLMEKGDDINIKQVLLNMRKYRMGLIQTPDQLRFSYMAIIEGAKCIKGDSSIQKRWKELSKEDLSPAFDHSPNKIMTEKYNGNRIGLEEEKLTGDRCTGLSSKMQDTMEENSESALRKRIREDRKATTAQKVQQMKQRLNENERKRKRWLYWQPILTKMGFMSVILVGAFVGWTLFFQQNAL
Method: (§1) The measurement of the activity of the phosphatases PTP1B and TC-PTP and their inhibition was carried out using 6,8-difluoro-4methylumbelliferyl phosphate (DiFMUP), as previously described. The stock solution of recombinant human PTP1B protein (#ab51277, Abcam, Cambridge, UK), at a concentration of 1 µg/µL, was prepared in 25 mM Tris–HCl (pH 7.5), 20% glycerol, 2 mM β-mercaptoethanol, 1 mm EDTA, and 1 mM DTT, and stored at −20 °C. Active human recombinant TC-PTP protein was purchased from Sigma-Aldrich (#SRP0218, Saint Louis, MO, USA) as the aqueous buffer solution at a concentration of 2.9 mg/mL, and aliquots were stored at −80 °C. The fluorogenic substrate DiFMUP (#D6567, Molecular Probes, Thermo Fisher Scientific, Waltham, MA, USA) was dissolved at a concentration of 10 mM in N,N-dimethylformamide and stored in aliquots at −20 °C. The 6,8-difluoro-7-hydroxy-4-methylcoumarin (DiFMU, #D6566, Molecular Probes, Thermo Fisher Scientific, Waltham, MA, USA) was used as a reference fluorescent standard. For the IC50 determination, the assay was carried out in black flat bottom 96-well plates using a reaction volume of 100 µL. The phosphatases (PTP1B or TC-PTP) were preincubated with the tested compounds (0.1–80 µM) in 50 mM HEPES (pH 6.9), 100 mM NaCl, 1 mM EDTA, 2 mM DTT, 0.1 mg/mL BSA for 5 min at 37 °C. The following concentrations of the compounds were studied: 0.1, 0.2, 0.5, 1, 2, 5, 10, 20, 40, and 80 μM. The reactions were initiated by the addition of the fluorogenic substrate DiFMUP and diluted in the assay buffer. Progress curves for hydrolysis reaction were obtained with 25 µM of DiFMUP for 80 ng/mL PTP1B, and 35 µM of DiFMUP for 80 ng/mL TC-PTP. Fluorescence excitation of hydrolyzed DiFMUP and the fluorescent standard DiFMU was monitored at 355 nm and emission was detected at 460 nm for 6–10 min at 30 s intervals in a Fluoroskan Ascent FL microplate reader (Thermo Electron Corporation, Vantaa, Finland). Initial velocities of the reactions were used to calculate the IC50 values using GraphPad Prism.
(§2) The data on food intake, body weight, and biochemical parameters in rats, as well as the PCR data, were analyzed using the IBM SPSS Statistics 22 software (“IBM”, Armonk, NY, USA), and the results are presented as mean ± standard error of the mean (M ± SEM). All differences are considered significant at p < 0.05. The calculation of the IC50 values of the studied inhibitors for the initial velocities of enzymatic reactions (PTP1B, TC-PTP) was carried out using the nonlinear regression analysis with GraphPad Prism 8 (“GraphPad Software, Inc.”, Boston, MA, USA). The statistical analysis was carried out using the Wilcoxon test for pairwise comparison and Dunn’s test for multiple comparisons.

[2] = molecular target: T2, recombinant human PTP1B protein (Homo sapiens, UniProt P18031); assay: Phosphatase activity assay with DiFMUP, PTP1B inhibition; format: biochemical
T2 construct: purchased Abcam ab51277
T2 sequence (P18031 1-321 limits assumed): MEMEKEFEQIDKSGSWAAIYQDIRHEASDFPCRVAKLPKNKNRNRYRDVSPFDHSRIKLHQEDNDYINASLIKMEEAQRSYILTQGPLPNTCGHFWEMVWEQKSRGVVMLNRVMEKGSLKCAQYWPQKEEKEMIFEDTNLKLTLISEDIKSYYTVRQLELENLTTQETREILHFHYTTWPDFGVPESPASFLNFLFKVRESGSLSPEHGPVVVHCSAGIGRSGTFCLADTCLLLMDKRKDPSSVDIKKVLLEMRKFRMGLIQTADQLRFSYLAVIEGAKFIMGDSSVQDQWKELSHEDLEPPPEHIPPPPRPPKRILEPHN
Method: as §1, §2

Shp1 gene = assay: Gene expression in the liver of obese rats (qPCR), Shp1 gene; format: in vivo, rat; details: five-day treatment
Method: (§3) Further, six groups were formed: control (Con, n = 10), obesity (Ob, n = 10), obese rats with five-day treatment with compounds 1 (Ob + 1, n = 5), 2 (Ob + 2, n = 5), 3 (Ob + 3, n = 10), and 4 (Ob + 4, n = 10). All compounds were administered in DMSO (300 µL) at a daily dose of 7 mg/kg (1 and 2), 8 mg/kg (3), and 10 mg/kg (4) (i.p.), based on the results of the preliminary experiments. The used doses of compounds 1–4, in terms of the number of moles of each compound per kg of animal body weight, were equivalent. Control and obese rats received DMSO in the same volumes (300 µL), instead of the tested compounds. During the five days of the experiment, all animals were transferred to standard food and had free access to food and drinking water. […] The test was carried out on the morning of the next day after the last (fifth) injection of the compounds or DMSO, after a 10 h fast. The rest of the animals (n = 5 in each group) were anesthetized and decapitated on the last day of the experiment. The blood and liver samples were taken to measure blood glucose and hormone levels and gene expression in the liver.
The total RNA was isolated from the liver samples of rats using the “ExtractRNA Reagent” (Evrogen, Moscow, Russia), and the samples containing 1 μg of RNA were transcribed to cDNA using the random oligodeoxynucleotide primers and the “MMLV RT kit” (Evrogen, Russia). The amplification procedure was carried out in the mixture containing 10 ng of reverse transcribed product, 0.4 μM of the forward and reverse primers, and the “qPCRmix-HS SYBR + LowROX kit” (Evrogen, Russia). The amplified signals were detected using the “Applied Biosystems® 7500 Real-Time PCR System” (Life Technologies, Carlsbad, CA, USA, Thermo Fisher Scientific Inc., USA). The primers that were used to assess the expression of genes encoding the phosphatase PTP1B, TC-PTP, and SHP1 and the insulin and leptin receptors are presented in Table 4. The obtained data were calculated with the delta–delta Ct method and expressed as a fold expression, relative to the corresponding control. The expression of the gene encoding 18S RNA was used as an endogenous control.

[3] = test system: male rats with HFD-induced obesity; assay: Blood glucose, insulin and leptin levels and insulin resistance index in obese rats; format: in vivo, male Wistar rats
Method: as §3
The glucose levels in the blood obtained from the tail vein were measured using a glucometer (Life Scan Johnson & Johnson, Denmark) and the test strips “One Touch Ultra” (USA). The levels of insulin and leptin in rat serum were estimated with the “Rat Insulin ELISA” (Mercodia AB, Uppsala, Sweden) and “ELISA for Leptin, Rat” (Cloud-Clone Corporation, Houston, TX, USA) kits. The GTT was carried out using a single injection of glucose (2 g/kg, i.p.) after 10 h of fasting, as described earlier. The blood glucose levels were measured before (0 min) and 15, 30, 60, and 120 min after the glucose load.

[4] = test system: PTP1B and TC-PTP in the hypothalamic arcuate nucleus; parameters: method as in PMID 30525586; details: administered to mice; cited from earlier work
[5] = blood, after five-day i.p. treatment, 7 mg/kg (1, 2), 8 mg/kg (3), 10 mg/kg (4), M ± SEM, n = 5
[6] = blood, before treatment (baseline), M ± SEM, n = 5

Structure (SMILES): CCOC(=O)c1ccc2[nH]nc(CO)c(=O)c2c1 [PI4, ethyl 3-(hydroxymethyl)-4-oxo-1,4-dihydrocinnoline-6-carboxylate]
- body and fat weights (diet-induced obese rats): reduced
- food intake (diet-induced obese rats): suppressed
- activity towards PTP1B (PTP1B): inhibitory activity
- effect on components of the insulin and leptin signaling pathways (Akt, STAT3) (rat hypothalamic neurons): stimulating effect

Structure (SMILES): O=c1c(CO)n[nH]c2ccc(F)cc12 [Compound 2]
- IC50 [1]: 42.8 ± 9.93 µM
- IC50 ([2]; DiFMUP 25 µM, 80 ng/mL PTP1B, compounds 0.1–80 μM, M ± SEM (n = 24), read-out: IC50 for the inhibitory effect on PTP1B activity): 6.01 ± 0.59 µM
- selectivity for PTP1B compared to that for TC-PTP ([2]; from IC50 values of Table 1): 5–7 fold
- expression of the Shp1 gene in the liver (Shp1 gene): increased
- Glucose, After [3, 5]: 5.68 ± 0.09 ^a mM
- Insulin, After [3, 5]: 1.19 ± 0.13 ^a,c ng/mL
- Leptin, After [3, 5]: 2.18 ± 0.22 ^a,c ng/mL
- Glucose, Before [3, 6]: 5.82 ± 0.22 ^a mM
- Insulin, Before [3, 6]: 1.65 ± 0.17 ^a ng/mL
- Leptin, Before [3, 6]: 3.27 ± 0.38 ^a ng/mL
- IR (insulin resistance index), After ([3]; product of blood glucose and insulin concentrations, after five-day i.p. treatment, 7 mg/kg (1, 2), 8 mg/kg (3), 10 mg/kg (4)): 6.79 ± 0.76 ^a arb.Units
- IR (insulin resistance index), Before ([3]; product of blood glucose and insulin concentrations, before treatment (baseline)): 9.68 ± 1.27 ^a arb.Units

Structure (SMILES): CC1=C(O)C(=O)C=C2C1=CC=C1[C@@]2(C)CC[C@@]2(C)[C@@H]3C[C@](C)(C(=O)O)CC[C@]3(C)CC[C@]12C [Celastrol]
- activity of both phosphatases (PTP1B, TC-PTP) in the hypothalamic arcuate nucleus [4]: reduced
- food intake and body weights [4]: significantly reducing
